Source: patent US12351819B2, “Method for removing undifferentiated pluripotent stem cells” (priority 2017, dated 2025)

Legend:
hESCs (H9) = details: for cytotoxic effect (LDH release) in hESCs: 2.5 μM, 24 hours, vs DMSO; for LDH assay positive, hESCs: Table 1
Description: (§1) The hESC line H9 was purchased from WiCells (Madison, WI, USA)^27. Another hESC line, HUES6, was kindly provided by Dr. Douglas A. Melton (Harvard University, Boston, MA, USA)^28. Cells were maintained on the feeder cells and cultured in Dulbecco's modified Eagle's medium (DMEM)/F12 supplemented with 20% knockout serum replacement, 2 mM L-glutamine, 1% nonessential amino acids, 4 ng/mL human bFGF, and 0.1 mM 2-mercaptoethanol. For the feeder cells culture, C57BL/6 mouse embryonic fibroblasts (MEF) were cultured in the DMEM with 10% FBS and treated cells with 0.01 mg/ml mitomycin C 2-6 hours for inactivation. For the feeder-free culture, hESCs were seeded on the Matrigel Matrix (BD Biosciences, San Jose, CA, USA) coated culture plates and maintained by conditioned medium of MEF (C57BL/6). hBMMSCs were cultured in mesenPRO RS™ kit (Life Technologies, Camarillo, CA, USA). All cells were cultured in a humidified atmosphere containing 5% CO2 at 37° C.
(§2) The supernatants of cells treated with digoxin […], lanatoside C 2.5 μm, or DMSO solvent control for 24 hours were harvested. The released LDH was measured using CytoTox 96 […] assay according to the manufacture's instruction (Promega, Southampton, UK). The supernatants and reagents were incubated at room temperature for 20 minutes and then the reaction was stopped by Stop Solution. The absorbance at 490 nm was measured using a plate-reading spectrophotometer (Benchmark Plus Microplate Spectrophotometer System, BIO-RAD, CA, USA).

[1] = test system: human bone marrow mesenchymal stem cells (hBMMSCs); details: 2.5 μM, 24 hours, vs DMSO
Description: as §1, §2

[2] = test system: hiPSC-derived endothelial cells; assay: LDH cytotoxicity assay in hiPSC-derived endothelial cells; assay type: cell-based, human; details: 2.5 μM, 24 hours
Description: The released LDH was measured using CytoTox 96 Non-Cytotoxicity assay according to the manufacture's instruction (Promega, Southampton, UK). The supernatants and reagents were incubated at room temperature for 20 minutes and then the reaction was stopped by Stop Solution. The absorbance at 490 nm was measured using a plate-reading spectrophotometer (Benchmark Plus Microplate Spectrophotometer System, BIO-RAD, CA, USA).

hESCs = assay: Cell colony and morphology under bright field, hESCs; assay type: cell-based, human; details: 2.5 μM, 12 hours and 24 hours
Description: Scale bar: 500 μm. […] The samples were normalized to the DMSO-treated hESCs. ***P<0.001; **P<0.01; n.s. not significant. Data are shown as the mean SD.
We investigated whether cardiac glycosides affected the viability of hESCs or other cell types. First, we treated undifferentiated hESCs with digoxin and lanatoside C for 12 hours and 24 hours, respectively. […] To investigate the cytotoxic effect of the cardiac glycosides, we measured the release of LDH in the culture supernatants after the hESCs were treated with digoxin or Lanatoside C for 24 hours (FIG. 1C).

H9 hESC-MSCs = assay: Cell morphology under bright field, H9 hESC-MSCs; assay type: cell-based, human; details: 2.5 μM, 12 hours and 24 hours
[3] = test system: cleaved PARP, caspase-3, caspase-7 in hBMMSCs; assay: Western blot of apoptotic markers, hBMMSCs; assay type: cell-based, human; details: 2.5 μM, 12 hours
Description: (§3) RIPA buffer was used to harvest cell lysates (RIPA buffer: NaCl 150 mM, Tris pH 8.0 50 mM, EDTApH 8.0 5 mM, NP-40 1.0%, SDS 0.5%, sodium deoxycholate 0.1%). Western blot analyses were performed as previously described with different types of primary antibodies^29. The primary antibody includes anti-β-actin (A5441; Sigma), anti-Oct4 (sc-9081; Santa Cruz Biotechnology, Santa Cruz, CA, USA), anti-Nanog (3580; Cell Signaling Technology, Danvers, MA, USA), apoptosis antibody kit (9915; Cell Signaling Technology), ATP1A1 (3010; Cell Signaling Technology), and ATP1A2 (16836-1-AP; Proteintech™) were used. After reaction at 4° C. overnight, the blots were incubated with goat anti-mouse- or goat anti-rabbit antibody conjugated with horseradish peroxidase (Jackson ImmunoResearch Inc). The chemiluminescent substrate (WBKLS0500; Millipore, Darmstadt, Germany) was used to detect the blots. Fujifilm LAS-4000 (FUJIFILM, Tokyo, Japan) was used to take the images.

[4] = test system: cleaved PARP, caspase3, caspase7 in hESC-MSCs; assay: Western blot of apoptotic markers, hESC-MSCs; assay type: cell-based, human; details: 2.5 μM, 12 hours
Description: as §3

hBMMSCs = assay: Adipogenesis and Oil Red O assay; assay type: cell-based, human; details: 2.5 μM 24 hours, drug removed; oil red O.D 510 nm
Description: Next, drugs were removed, and the cells were cultured in MSCgo™ Adipogenic Differentiation Medium (Biological Industries). The media was changed every 3-4 days for 8-12 days. After the adipogenic induction, we replaced the MSCgo™ Adipogenic complete medium with MSC maintenance medium for 6-9 days. The cells were carefully fixed with 4% formaldehyde for 1 hour at room temperature, washed with 60% isopropanol, and air-dried. The lipid drops were stained with Oil Red O working solution (30 ml 0.35% oil red solution in isopropanol diluted with 20 ml of distilled water) for 10 minutes. Next, the cells were washed with water 4 times. For quantification, Oil Red O stain was extracted with 100% isopropanol, and the absorbance at 510 nm was detected.

[5] = test system: mixture of hESCs and GFP-overexpressing hBMMSCs; assay: Kidney capsule transplantation of treated hESCs and hBMMSCs; assay type: in vivo; details: drug-treated hESCs and hBMMSCs under the kidney capsule, NSG mice, five weeks
Description: The 293T cells were seeded with 10^6 cells in 6-well plates for the generation of the lentivirus. After 24 hours, the 293T cells were transfected with 1 μg of pLKO_AS3w.eGFP.bsd, 0.9 μg of pCMVR8.91, and 0.1 μg of pMD.G (National RNAi Core Facility, Taipei, Taiwan) via the TurboFect transfection reagent (Thermo Fisher Scientific). At 24 hours after the transfection, the medium was refreshed with the virus harvest medium, which contained HG-DMEM, 10% FBS and 1% BSA. The hBMMSCs were seeded in 6-well plates and later incubated with the lentivirus (multiplicity of infection=10) for one day. The cells were selected with 10 μg/ml blasticidin (Thermo Fisher Scientific) the following day. The GFP overexpressing hBMMSCs were then isolated using a cell sorter (FACS Aria™ II, BD Biosciences) and cultured in a medium containing 10 μg/ml blasticidin for the following experiments.
Mixtures of approximately 8×10^5 hESCs and 8×10^5 hBMMSCs were injected under the kidney capsules into 6-week-old male NSG mice. Five weeks after the transplantation, the animals were sacrificed, and the tissues were removed, fixed in 10% formalin, embedded in paraffin, stained with H&E or were subjected to IHC staining. The staining protocols were described in the materials and method section. Chicken anti-GFP (ab 13970, Abcam, Cambridge, MA, USA) antibody was used for the GFP overexpressing hBMMSCs IHC staining.

SMILES | cytotoxic effect (LDH release) in hESCs (hESCs (H9)) | LDH assay positive, hESCs (hESCs (H9)) | cytotoxic effect (LDH release) in hBMMSCs [1] | survival of hiPSC-derived endothelial cells (LDH release) [2] | cell death (bright field morphology) in hESCs (hESCs) | cell death (bright field morphology) in H9 hESC-MSCs (H9 hESC-MSCs) | cleaved form of apoptosis markers in hBMMSCs [3] | cleaved form of apoptosis markers in hESC-MSCs [4] | differentiation ability of hBMMSCs into adipocytes (hBMMSCs) | tumor area of kidney tissue [5]
C[C@H]1O[C@@H](O[C@H]2[C@@H](O)C[C@H](O[C@H]3[C@@H](O)C[C@H](O[C@H]4CC[C@@]5(C)[C@H](CC[C@@H]6[C@@H]5C[C@@H](O)[C@]5(C)[C@@H](C7=CC(=O)OC7)CC[C@]65O)C4)O[C@@H]3C)O[C@@H]2C)C[C@H](O)[C@@H]1O [Digoxin, digoxin] | significantly induced a cytotoxic effect | +++ (more than 70% positive cells) | no cytotoxic effects | remained alive | induced dramatic cell death | Neither digoxin (2.5 μM) nor lanatoside C (2.5 μM) induced cell death | no cleaved form of the apoptosis markers was detected | no cleaved form of the apoptosis markers was detected | neither digoxin nor lanatoside C affected the differentiation ability | significantly inhibited
CC(=O)O[C@H]1C[C@H](O[C@H]2[C@@H](O)C[C@H](O[C@H]3[C@@H](O)C[C@H](O[C@H]4CC[C@@]5(C)[C@H](CC[C@@H]6[C@@H]5C[C@@H](O)[C@]5(C)[C@@H](C7=CC(=O)OC7)CC[C@]65O)C4)O[C@@H]3C)O[C@@H]2C)O[C@H](C)[C@H]1O[C@@H]1O[C@H](CO)[C@@H](O)[C@H](O)[C@H]1O [Lanatoside C, lanatoside C] | significantly induced a cytotoxic effect | +++ (more than 70% positive cells) | no cytotoxic effects | remained alive | induced dramatic cell death | Neither digoxin (2.5 μM) nor lanatoside C (2.5 μM) induced cell death | no cleaved form of the apoptosis markers was detected | no cleaved form of the apoptosis markers was detected | neither digoxin nor lanatoside C affected the differentiation ability | significantly inhibited
